Test results from patent publication US10441662B2, “Polymer, method for producing polymer, and drug conjugate” (Kawasaki Institute of Industrial Promotion, priority 2016, dated 2019).
Counter-ions that a name gives are not always drawn. Like-named read-outs stand apart in the source and are kept apart here.

Tests used:
PC14.PE6 strain = assay: Cytotoxicity test against lung cancer cells, PC14.PE6
Experimental: (§1) The cytotoxicity test was performed on the K252a-H bonded aromatic polymer micelle and the K252a-H bonded aliphatic polymer micelle using the lung cancer cell strains listed in Table 4.
(§2) 2000 cells/50 μL of a cell solution was adjusted to have an appropriate amount, and 50 μL of the solution was each seeded to the […] of a 96-well plate. Only a culture medium (DMEM culture medium containing 10% FBS) was added to the raw 1. After the seeding, the 96-well plate was incubated for 24 hours.
(§3) 300 μL of a culture medium was added to each of 10 wells of the 24-well plate. 100 μL of the micelle solution was added to the well 1A of the 24-well plate and stirred by pipetting (approximately 10 times), and 100 μL of the micelle solution was transferred to the well 2B and stirred in the same manner as described above. The same operation was repeated 10 times, and micelle solutions having ten different concentrations were prepared.
(§4) 50 μL of each micelle solution adjusted in the above-described manner was added to the row 3 to the row 12 of a 96-well plate seeded with cancer cells in descending order of micelle concentrations of the solutions. Only 50 μL of a culture medium was added to the rows 1 and 2. Thereafter, the 96-well plate was incubated. After the incubation, the cells remained, the solutions in the wells were removed, and the cells in each well were washed with 200 μL of the culture medium. Finally, 100 μL of the culture medium was added to each well and the 96-well plate was incubated for 48 hours.
(§5) After 48 hours, 10 μL of a cell counting kit-8 solution (DOJINDO) was added to each well. The 96-well plate was incubated again, and the absorbance at a wavelength of 450 nm was measured after 30 minutes, 1 hour, and 2 hours.
The PC14.PE6 strain is a cancer cell strain (Yano et al., Oncology Research 9:573 to 579 (1997)) obtained by performing an operation of administering the PC14 strain to the tail vein of a mouse and establishing the cancer cells metastasized to the thoracic cavity six times. Therefore, the PC14.PE6 strain is a cancer cell strain which is extremely metastatic and malignant.

PC14 strain = assay: Cytotoxicity test against lung cancer cells, PC14
Experimental: as §1, §2, §3, §4, §5
The PC14.PE6 strain is a cancer cell strain (Yano et al., Oncology Research 9:573 to 579 (1997)) obtained by performing an operation of administering the PC14 strain to the tail vein of a mouse and establishing the cancer cells metastasized to the thoracic cavity six times. […]

[1] = Evaluation of maximum tolerated dose (MTD) of DAVBNH; type: in vivo, mouse
Experimental: DAVBNH was administered to mice (BALB/c Nude, female, 6 weeks old) four times (0 day, 3rd day, 6th day, 9th day) […], and the maximum tolerated dose (MTD) was evaluated. The administration groups were prepared as follows, and the number of mice in each group was set to 3.
Administration group 1: 3 mg/kg of DAVBNH
Administration group 2: 4 mg/kg of DAVBNH
Administration group 3: 6 mg/kg of DAVBNH

[2] = Evaluation of maximum tolerated dose (MTD) of drug conjugate; type: in vivo, mouse
Experimental: The drug was administered to mice (BALB/c Nude, female, 6 weeks old) four times (0 day, 3rd day, 6th day, 9th day) […], and the maximum tolerated dose (MTD) was evaluated. The administration groups were prepared as follows, and the number of mice in each group was set to 5.
Administration group 1: PBS (control)
Administration group 2: 2 mg/kg of DAVBNH (VinHyd)
Administration group 3: 2 mg/kg of DAVBNH bonded polymer micelle (Example 1)
Administration group 4: 4 mg/kg of DAVBNH bonded polymer micelle (Example 1)
Administration group 5: 16 mg/kg of DAVBNH bonded polymer micelle (Example 1)

[3] = system: pancreatic cancer cell strains; assay: Cytotoxicity test against pancreatic cancer cells; type: cell-based; conditions: FIG. 31
Experimental: The cytotoxicity test was performed on the K252a-H bonded aromatic polymer micelle and the K252a-H bonded aliphatic polymer micelle using various pancreatic cancer cell strains in the same manner as described above. The BXPC3-F3 strain is a metastatic strain which became malignant by performing an operation of establishing a cancer cell strain metastasized to the liver after orthotopic transplant into a mouse, three times. Further, KP-3L is a metastatic strain (available from the cell bank of National Institutes of Biomedical Innovation, Health and Nutrition JCRB) obtained by establishing a cancer cell strain metastasized to the liver after human liver metastatic pancreatic cancer was transplanted to the spleen of a nude mouse.

[4] = system: lung cancer cell strains listed in Table 4; assay: Cytotoxicity test against lung cancer cells; type: cell-based; conditions: FIG. 29
Description: Further, in the following example, the used cell strains were purchased from the cell bank of American Type Culture. Collection, ATCC or National Institutes of Biomedical Innovation, Health and Nutrition (JCRB). PC14 PE6 was distributed from Profession Hosho (Tottori University). As the culture medium, DMEM, RPMI, or E-MEM was used unless otherwise specified. Gefitinib, Afatinib, Erlotinib, Cisplatin, Pemetrexed, and Gemicitabine were purchased from Funakoshi Co., Ltd. Osimertinib was purchased from Sellek Chemicals LLC.
Thereafter, the 96-well plate was incubated.

[5] = Solubilization test in water; type: physicochemical; conditions: distilled water, UV absorption spectrum of filtrate
Experimental: K252a-H powder was dissolved in distilled water or methanol at a ratio of 1 mg/mL and the solution was sufficiently mixed. Thereafter, the solution was filtered using a filter having a pore diameter of […]. The ultraviolet absorption spectrum of the filtrate prepared as described above was measured using a spectrophotometer (Jasco V670). Based on the results of FIG. 27, it was confirmed that K252a-H was only dissolved in water at a ratio of 1 μg/mL or less.
Meanwhile, the K252a-H bonded aromatic polymer micelle and the K252a-H bonded aliphatic polymer micelle were dissolved in water, and the concentration of K252a-H was measured using HPLC.

RET = assay: Hot spot kinase profiling; type: biochemical; conditions: 100 nM, ATP 10 μM
Experimental: (§6) The kinase profiling of K252a-H was performed using Monthly 202 mutant kinase panel by entrustment with Reaction Biology Corporation. The conditions for the kinase assay are as follows. KK252a was dissolved in DMSO and the assay was performed at 100 nM.
(§7) Buffer condition: 20 mM HEPES, pH of 7.5, 10 mM MgCl2, 1 mM EGTA, (in a case of being applicable, 2 mM MnCl2)

c-kit = assay: Hot spot kinase profiling; type: biochemical; conditions: 100 nM, ATP 10 μM
Experimental: as §6, §7

Flt3 = assay: Hot spot kinase profiling; type: biochemical; conditions: 100 nM, ATP 10 μM
Experimental: as §6, §7

EGFR T790M = molecular target: T1, EGFR T790M (Homo sapiens, UniProt P00533, T790M); assay: Hot spot kinase profiling, EGFR mutation; type: biochemical; conditions: 100 nM, ATP 10 μM, FIG. 40
T1 construct: purchased Reaction Biology Corporation
Experimental: as §6, §7

EGFR L858R = molecular target: T2, EGFR L858R (Homo sapiens, UniProt P00533, L858R); assay: Hot spot kinase profiling, EGFR mutation; type: biochemical; conditions: 100 nM, ATP 10 μM, FIG. 40
T2 construct: purchased Reaction Biology Corporation
Experimental: as §6, §7

[6] = molecular target: T3, EGFR d746-750/T790M/C797S (Homo sapiens, UniProt P00533, C797S/DEL746-750/T790M); assay: Hot spot kinase profiling, EGFR mutation; type: biochemical; conditions: 100 nM, ATP 10 μM, FIG. 40
T3 construct: purchased Reaction Biology Corporation
Experimental: as §6, §7

EGFR d746-750/T790M = molecular target: T4, EGFR d746-750/T790M (Homo sapiens, UniProt P00533, DEL746-750/T790M); assay: Hot spot kinase profiling, EGFR mutation; type: biochemical; conditions: 100 nM, ATP 10 μM, FIG. 40
T4 construct: purchased Reaction Biology Corporation
Experimental: as §6, §7

[7] = molecular target: mutant kinases (list of FIG. 42); assay: Hot spot kinase profiling, Monthly 202 mutant kinase panel; type: biochemical; conditions: 100 nM, ATP 10 μM, mutant kinases listed in FIG. 42
Experimental: as §6, §7

[8] = system: mesothelioma cell strain MSTO-211H; assay: Cytotoxicity test against mesothelioma cells; type: cell-based; conditions: FIG. 33
Description: Further, CDDP indicates Cisplatin serving as a target treatment drug for mesothelioma. Pemetrexed is also a target treatment drug for mesothelioma.

[9] = system: head and neck cancer cell strains; assay: Cytotoxicity test against head and neck cancer cells; type: cell-based; conditions: all head and neck cancer cell strains, FIG. 32
Experimental: The cytotoxicity test was performed on the K252a-H bonded aromatic polymer micelle and the K252a-H bonded aliphatic polymer micelle using various head and neck cancer cell strains in the same manner as described above. Further, CDDP indicates Cisplatin serving as a target treatment drug for head and neck cancer.

[10] = system: U87MG serving as a glioma cell strain; assay: Cytotoxicity test against brain tumor cells (cell-counting kit-8); type: cell-based; conditions: Homo sapiens, U-87 MG
Experimental: The in vitro cytotoxicity of the vinblastine sulfate and the drug conjugate (DAVBNH bonded polymer micelle of Example 1) was evaluated using cell-counting kit-8 with respect to U87MG serving as a glioma cell strain. The U87MG cells (3000 cells/well) were cultured in a DMEM medium containing 10% FBS using a 96-well plate. Thereafter, the U87MG cells were exposed to the vinblastine sulfate or the drug conjugate whose dose was different from that of the vinblastine sulfate. The cell survival rates after 48 hours and 72 hours from the exposure were acquired by measuring the formazan absorbance […] 450 nm.

[11] = mouse; cited from earlier work
[12] = malignant metastatic strain, compared with PC14

## CN(C)C/C=C/C(=O)Nc1cc2c(Nc3ccc(F)c(Cl)c3)ncnc2cc1O[C@H]1CCOC1 [Afatinib]
PC14.PE6 strain; [12]
  cytotoxic activity against the PC14.PE6 strain: significantly decreased
PC14 strain; FIGS. 29 and 30
  cytotoxic activity against the PC14 strain: excellent cytotoxic activity

## CC[C@]1(O)C[C@@H]2CN(CCc3c([nH]c4ccccc34)[C@@](C(=O)OC)(c3cc4c(cc3OC)N(C)[C@H]3[C@@](O)(C(=O)NN)[C@H](O)[C@]5(CC)C=CCN6CC[C@]43[C@@H]65)C2)C1 [DAVBNH, desacetyl vinblastine hydrazide]
[1]; dose of 3 mg/kg, after only 25% of the treatment schedule
  weight loss: significant weight loss was observed
[1]; mice, four administrations
  lethal dose: 6 mg/kg
[2]; dose 2 mg/kg
  weight loss: a weight loss occurs
[2]; female, BALB/c Nude, mouse, in vivo, 2 mg/kg, mice, as used in Example 8
  MTD: 2 mg/kg

## C#Cc1cccc(Nc2ncnc3cc(OCCOC)c(OCCOC)cc23)c1 [Erlotinib]
[3]
  effect on K-ras mutant strains and malignant metastatic strains: not largely affected

## CC12OC(CC1(O)C(=O)NN)n1c3ccccc3c3c4c(c5c6ccccc6n2c5c31)CNC4=O (centres unmarked) [Example K252a-H, K252a hydrazide]
[4]
  cytotoxic activity against lung cancer having resistance to lung cancer treatment drugs of the related art: excellent cytotoxic activity
[3]
  effect on K-ras mutant strains and malignant metastatic strains: effective for K-ras mutant strains and malignant metastatic strains
[5]
  dissolved in water: ≤ 1 µg/mL
RET
  inhibition of oncogene RET: strong inhibitor
c-kit
  inhibition of oncogene c-kit: strong inhibitor
Flt3
  inhibition of oncogene Flt3: strong inhibitor
EGFR T790M
  activity against EGFR gatekeeper mutation T790M: specifically high activity
EGFR L858R
  activity against EGFR gatekeeper mutation L858R: specifically high activity
[6]
  activity against EGFR gatekeeper mutation d746-750/T790M/C797S: specifically high activity
EGFR d746-750/T790M
  activity against EGFR gatekeeper mutation d746-750/T790M: specifically high activity
[7]
  kinase activity suppressed to: ≤ 30%
[8]
  cytotoxic activity compared with Cisplatin and Pemetrexed: higher cytotoxic activity than that of Cisplatin and Pemetrexed
PC14.PE6 strain; [12]
  cytotoxic activity against the PC14.PE6 strain: increased
[9]
  cytotoxic activity compared with Cisplatin: higher cytotoxic activity against all head and neck cancer cell strains than that of Cisplatin

## COc1cc2ncnc(Nc3ccc(F)c(Cl)c3)c2cc1OCCCN1CCOCC1 [Gefitinib]
PC14.PE6 strain
  cytotoxic activity against the PC14.PE6 strain: significantly decreased
PC14 strain
  cytotoxic activity against the PC14 strain: excellent cytotoxic activity

## Nc1ccn([C@@H]2O[C@H](CO)[C@@H](O)C2(F)F)c(=O)n1 [Gemcitabine]
[3]
  effect on K-ras mutant strains and malignant metastatic strains: not largely affected

## C=CC(=O)Nc1cc(Nc2nccc(-c3cn(C)c4ccccc34)n2)c(OC)cc1N(C)CCN(C)C [Osimertinib]
PC14.PE6 strain
  cytotoxic activity against the PC14.PE6 strain: significantly decreased
PC14 strain
  cytotoxic activity against the PC14 strain: excellent cytotoxic activity

## CC[C@]1(O)C[C@@H]2CN(CCc3c([nH]c4ccccc34)[C@@](C(=O)OC)(c3cc4c(cc3OC)N(C)[C@H]3[C@@](O)(C(=O)OC)[C@H](OC(C)=O)[C@]5(CC)C=CCN6CC[C@]43[C@@H]65)C2)C1 [Vinblastine sulfate, vinblastine sulfate]
[10]; 48 hours from the exposure, read-out: IC50 48 hours
  IC50: 1.4 nM
[10]; 72 hours from the exposure, read-out: IC50 72 hours
  IC50: 1.7 nM

## CC[C@]1(O)C[C@@H]2CN(CCc3c([nH]c4ccccc34)[C@@](C(=O)OC)(c3cc4c(cc3OC)N(C)[C@H]3[C@@](O)(C(=O)OC)[C@H](OC(C)=O)[C@]5(CC)C=CCN6CC[C@]43[C@@H]65)C2)C1 [Vinblastine, vinblastine]
[11]
  maximum tolerated dose: 2 mg/kg
